The source of these data is ChEMBL document CHEMBL5550160, “Leveraging a rationally designed veliparib-based anilide eliciting anti-leukemic effects for the design of pH-responsive polymer nanoformulation” (Eur J Med Chem, 2024).

One experiment has as its target Histone deacetylase 3 (Homo sapiens, UniProt O15379). Nature of the experiment: Inhibition of HDAC3 (unknown origin) using p53 residues 379 to 382 [RHKK(Ac)] as fluorogenic substrate assessed as residual activity at 1 x 10^-5M (reference value: 103.08%). The note with it: dose 1.0 10^-5M.
The target of experiment [1] is T1, Polyamine deacetylase HDAC10 (Homo sapiens) (UniProt Q969S8).
T1 sequence (whole entry): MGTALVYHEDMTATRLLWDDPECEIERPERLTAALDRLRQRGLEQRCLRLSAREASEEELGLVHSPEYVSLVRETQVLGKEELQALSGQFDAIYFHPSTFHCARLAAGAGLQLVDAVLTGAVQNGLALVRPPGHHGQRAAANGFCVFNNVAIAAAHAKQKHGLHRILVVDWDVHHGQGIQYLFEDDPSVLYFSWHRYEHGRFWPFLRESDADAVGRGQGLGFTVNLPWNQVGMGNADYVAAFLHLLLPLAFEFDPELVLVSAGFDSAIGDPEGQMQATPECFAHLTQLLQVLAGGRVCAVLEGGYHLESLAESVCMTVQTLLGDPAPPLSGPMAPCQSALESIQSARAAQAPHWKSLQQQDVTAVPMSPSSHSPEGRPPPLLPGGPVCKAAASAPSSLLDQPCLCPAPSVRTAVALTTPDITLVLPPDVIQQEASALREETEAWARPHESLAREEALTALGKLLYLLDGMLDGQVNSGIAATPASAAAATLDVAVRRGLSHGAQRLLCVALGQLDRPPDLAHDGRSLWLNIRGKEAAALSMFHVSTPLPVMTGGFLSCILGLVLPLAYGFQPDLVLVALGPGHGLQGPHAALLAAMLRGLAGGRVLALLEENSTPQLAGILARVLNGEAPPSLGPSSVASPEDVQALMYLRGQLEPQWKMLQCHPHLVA
Description: Inhibition of HDAC10 (unknown origin) assessed as residual activity at 1 x 10^-5M (reference value: 101.54%). The note with it: dose 1.0 10^-5M.

A further experiment addresses Histone deacetylase 1 (Homo sapiens, UniProt Q13547). Nature of the experiment: Inhibition of HDAC1 (unknown origin) using p53 residues 379 to 382 [RHKK(Ac)] as fluorogenic substrate assessed as residual activity at 3.70 x 10^-7M (reference value: 98.06%). The note with it: dose 3.7 10^-7M.
The target in experiment [2] is Histone deacetylase 4 (Homo sapiens) (UniProt P56524). Description: Inhibition of HDAC4 (unknown origin) assessed as residual activity at 4.12 x 10^-8M (reference value: 98.90%). The note with it: dose 4.12 10^-8M.
Histone deacetylase 4 (Homo sapiens), sequence (P56524 whole entry): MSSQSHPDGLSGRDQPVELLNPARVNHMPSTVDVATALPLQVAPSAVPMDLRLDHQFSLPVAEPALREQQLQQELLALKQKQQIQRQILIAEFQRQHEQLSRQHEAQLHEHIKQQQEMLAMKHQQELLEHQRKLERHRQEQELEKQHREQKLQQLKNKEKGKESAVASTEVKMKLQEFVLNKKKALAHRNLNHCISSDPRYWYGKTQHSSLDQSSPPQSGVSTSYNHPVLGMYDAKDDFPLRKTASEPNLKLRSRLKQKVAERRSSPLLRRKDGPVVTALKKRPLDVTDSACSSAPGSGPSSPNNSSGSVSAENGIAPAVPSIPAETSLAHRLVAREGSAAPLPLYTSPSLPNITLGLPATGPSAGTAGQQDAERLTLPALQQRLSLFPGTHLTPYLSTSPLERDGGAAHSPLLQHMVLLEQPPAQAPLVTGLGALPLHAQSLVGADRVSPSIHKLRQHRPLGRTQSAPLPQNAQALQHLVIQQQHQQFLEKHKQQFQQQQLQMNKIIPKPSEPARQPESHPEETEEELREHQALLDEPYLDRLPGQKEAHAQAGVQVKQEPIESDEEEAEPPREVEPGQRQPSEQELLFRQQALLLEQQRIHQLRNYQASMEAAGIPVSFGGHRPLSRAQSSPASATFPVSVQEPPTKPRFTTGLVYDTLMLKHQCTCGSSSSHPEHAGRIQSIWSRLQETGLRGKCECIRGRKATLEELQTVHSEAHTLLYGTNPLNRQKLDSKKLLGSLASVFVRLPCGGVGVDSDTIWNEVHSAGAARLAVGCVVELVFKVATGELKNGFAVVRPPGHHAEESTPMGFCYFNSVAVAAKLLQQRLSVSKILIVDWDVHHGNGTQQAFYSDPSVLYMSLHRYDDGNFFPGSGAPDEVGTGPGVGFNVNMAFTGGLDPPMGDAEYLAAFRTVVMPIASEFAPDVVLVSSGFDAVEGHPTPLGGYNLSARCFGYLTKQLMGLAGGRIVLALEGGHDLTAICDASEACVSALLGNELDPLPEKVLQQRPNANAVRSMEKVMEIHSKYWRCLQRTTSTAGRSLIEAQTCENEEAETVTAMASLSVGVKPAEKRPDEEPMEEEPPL
Experiment [3] has as its target Histone deacetylase 5 (Homo sapiens) (UniProt Q9UQL6). Description: Inhibition of HDAC5 (unknown origin) assessed as residual activity at 1.37 x 10^-8M (reference value: 100%). The note with it: dose 1.37 10^-8M.
Experiment [4] addresses T2, Histone deacetylase 7 (Homo sapiens) (UniProt Q8WUI4).
T2 sequence (whole entry): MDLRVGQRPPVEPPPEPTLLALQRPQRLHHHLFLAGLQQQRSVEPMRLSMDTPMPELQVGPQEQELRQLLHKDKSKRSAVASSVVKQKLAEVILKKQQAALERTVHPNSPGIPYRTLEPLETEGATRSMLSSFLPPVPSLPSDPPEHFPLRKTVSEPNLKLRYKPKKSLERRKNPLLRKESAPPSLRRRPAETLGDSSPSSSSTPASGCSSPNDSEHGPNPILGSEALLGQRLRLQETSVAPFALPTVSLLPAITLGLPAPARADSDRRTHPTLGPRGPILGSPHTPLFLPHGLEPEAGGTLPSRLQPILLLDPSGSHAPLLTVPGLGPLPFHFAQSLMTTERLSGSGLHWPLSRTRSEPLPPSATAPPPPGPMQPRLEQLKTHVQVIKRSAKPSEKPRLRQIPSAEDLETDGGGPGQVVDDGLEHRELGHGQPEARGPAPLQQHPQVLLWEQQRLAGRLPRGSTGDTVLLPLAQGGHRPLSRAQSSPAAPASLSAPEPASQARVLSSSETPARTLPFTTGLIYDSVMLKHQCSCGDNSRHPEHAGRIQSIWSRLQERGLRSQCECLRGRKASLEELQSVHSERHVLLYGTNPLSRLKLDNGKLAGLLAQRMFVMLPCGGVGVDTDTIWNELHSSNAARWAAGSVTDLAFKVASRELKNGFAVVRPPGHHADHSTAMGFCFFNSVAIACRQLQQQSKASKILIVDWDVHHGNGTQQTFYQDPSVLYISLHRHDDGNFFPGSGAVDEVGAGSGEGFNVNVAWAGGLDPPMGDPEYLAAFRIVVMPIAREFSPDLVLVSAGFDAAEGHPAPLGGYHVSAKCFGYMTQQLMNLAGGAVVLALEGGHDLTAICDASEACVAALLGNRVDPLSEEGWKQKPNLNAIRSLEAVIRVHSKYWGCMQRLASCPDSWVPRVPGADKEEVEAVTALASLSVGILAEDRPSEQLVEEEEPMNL
Nature of the experiment: Inhibition of HDAC7 (unknown origin) assessed as residual activity at 5.08 x 10^-10M (reference value: 102.66%). The note with it: dose 5.08 10^-10M.

Experiment [5] concerns the target T3, Histone deacetylase 8 (Homo sapiens) (UniProt Q9BY41).
T3 sequence (whole entry): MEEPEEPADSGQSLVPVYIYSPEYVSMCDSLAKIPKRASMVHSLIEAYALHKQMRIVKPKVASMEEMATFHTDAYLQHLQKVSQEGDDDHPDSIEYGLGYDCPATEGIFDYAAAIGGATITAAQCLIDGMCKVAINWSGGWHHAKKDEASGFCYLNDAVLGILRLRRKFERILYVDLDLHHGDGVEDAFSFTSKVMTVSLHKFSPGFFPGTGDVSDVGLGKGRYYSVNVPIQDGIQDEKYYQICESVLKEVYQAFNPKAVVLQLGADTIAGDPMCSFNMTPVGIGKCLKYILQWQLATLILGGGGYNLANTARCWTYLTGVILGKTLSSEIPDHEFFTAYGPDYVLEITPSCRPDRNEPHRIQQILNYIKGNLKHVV
Description: Inhibition of HDAC8 (unknown origin) assessed as residual activity at 4.12 x 10^-8M (reference value: 100%). The note with it: dose 4.12 10^-8M.

For experiment [6], the target named is Histone deacetylase 9 (Homo sapiens) (UniProt Q9UKV0). Nature of the experiment: Inhibition of HDAC9 (unknown origin) assessed as residual activity at 3.33 x 10^-6M (reference value: 97.55%). The note with it: dose 3.33 10^-6M.
Histone deacetylase 9 (Homo sapiens), sequence (Q9UKV0 whole entry): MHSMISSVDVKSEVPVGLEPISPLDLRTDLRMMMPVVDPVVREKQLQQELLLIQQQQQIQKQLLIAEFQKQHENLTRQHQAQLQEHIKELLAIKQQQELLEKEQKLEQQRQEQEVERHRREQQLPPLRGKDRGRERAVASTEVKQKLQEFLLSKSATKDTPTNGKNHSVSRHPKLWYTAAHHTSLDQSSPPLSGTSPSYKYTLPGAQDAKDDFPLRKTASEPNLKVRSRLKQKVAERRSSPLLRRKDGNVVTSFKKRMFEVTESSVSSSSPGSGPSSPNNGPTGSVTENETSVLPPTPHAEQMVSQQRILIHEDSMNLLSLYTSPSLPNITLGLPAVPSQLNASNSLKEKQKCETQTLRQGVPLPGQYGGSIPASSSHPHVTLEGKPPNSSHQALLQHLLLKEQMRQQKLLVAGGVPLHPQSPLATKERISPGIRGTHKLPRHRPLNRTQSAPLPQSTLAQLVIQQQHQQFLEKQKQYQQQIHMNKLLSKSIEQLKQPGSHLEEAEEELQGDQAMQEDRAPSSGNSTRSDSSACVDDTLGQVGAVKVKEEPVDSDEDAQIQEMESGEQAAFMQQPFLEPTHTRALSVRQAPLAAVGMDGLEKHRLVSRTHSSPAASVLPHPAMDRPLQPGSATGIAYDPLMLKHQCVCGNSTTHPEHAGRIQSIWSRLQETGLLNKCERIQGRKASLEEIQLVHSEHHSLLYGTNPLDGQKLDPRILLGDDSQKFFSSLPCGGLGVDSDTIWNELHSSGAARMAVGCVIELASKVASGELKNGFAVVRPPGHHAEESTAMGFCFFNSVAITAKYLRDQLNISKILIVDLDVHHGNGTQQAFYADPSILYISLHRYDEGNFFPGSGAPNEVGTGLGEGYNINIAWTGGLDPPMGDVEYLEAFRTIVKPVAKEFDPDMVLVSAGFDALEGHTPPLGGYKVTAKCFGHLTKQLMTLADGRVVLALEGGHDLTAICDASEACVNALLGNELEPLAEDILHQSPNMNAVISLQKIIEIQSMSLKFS
The test system of experiment [7] is HL-60. Nature of the experiment: Upregulation of gammaH2AX protein expression in human HL-60 cells at 0.5 to 1 times IC50 by Western blot analysis. Type of experiment: functional, cell-based. On the technique in general: Immunoblotting shows a protein as a band on a membrane.
Experiment [8] has as its system HL-60. Nature of the experiment: Induction of apoptosis in human HL-60 cells assessed as cell shrinkage at 0.5 to 1 times IC50 by DAPI staining based microscopic analysis. Type of experiment: functional.

Activity calls are given as the source filed them. The rule behind the calls is not given here.

Histone deacetylase 5 (Homo sapiens), sequence (Q9UQL6 whole entry): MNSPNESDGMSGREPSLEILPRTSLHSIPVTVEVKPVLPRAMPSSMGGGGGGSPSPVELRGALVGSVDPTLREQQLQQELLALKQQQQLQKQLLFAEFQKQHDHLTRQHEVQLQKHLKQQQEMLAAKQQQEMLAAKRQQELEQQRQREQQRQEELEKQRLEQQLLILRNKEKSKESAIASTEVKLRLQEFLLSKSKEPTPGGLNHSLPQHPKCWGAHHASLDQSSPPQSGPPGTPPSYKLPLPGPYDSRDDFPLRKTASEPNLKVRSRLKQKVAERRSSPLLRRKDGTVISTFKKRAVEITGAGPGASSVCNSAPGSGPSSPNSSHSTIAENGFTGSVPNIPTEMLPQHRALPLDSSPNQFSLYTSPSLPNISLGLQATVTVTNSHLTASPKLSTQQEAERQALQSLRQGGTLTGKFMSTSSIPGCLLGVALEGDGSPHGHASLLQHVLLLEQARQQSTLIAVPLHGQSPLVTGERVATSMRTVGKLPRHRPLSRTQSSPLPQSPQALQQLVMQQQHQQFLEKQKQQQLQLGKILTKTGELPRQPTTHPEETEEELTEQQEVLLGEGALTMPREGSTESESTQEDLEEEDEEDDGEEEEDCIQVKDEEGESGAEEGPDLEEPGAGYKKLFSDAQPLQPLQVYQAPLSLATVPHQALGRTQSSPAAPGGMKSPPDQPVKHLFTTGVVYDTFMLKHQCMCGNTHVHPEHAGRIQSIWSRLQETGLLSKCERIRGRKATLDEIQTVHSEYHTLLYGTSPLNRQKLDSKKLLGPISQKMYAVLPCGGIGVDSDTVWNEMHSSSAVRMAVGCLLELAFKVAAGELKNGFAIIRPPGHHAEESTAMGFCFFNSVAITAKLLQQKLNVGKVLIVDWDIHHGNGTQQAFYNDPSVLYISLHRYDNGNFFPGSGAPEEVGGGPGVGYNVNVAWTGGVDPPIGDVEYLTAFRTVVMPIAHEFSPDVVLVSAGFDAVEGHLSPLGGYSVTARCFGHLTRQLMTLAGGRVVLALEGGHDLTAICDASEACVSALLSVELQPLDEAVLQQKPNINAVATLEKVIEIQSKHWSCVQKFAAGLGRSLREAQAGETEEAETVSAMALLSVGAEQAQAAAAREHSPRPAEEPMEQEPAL
Histone deacetylase 3, sequence (O15379 whole entry, the tested form may be a part): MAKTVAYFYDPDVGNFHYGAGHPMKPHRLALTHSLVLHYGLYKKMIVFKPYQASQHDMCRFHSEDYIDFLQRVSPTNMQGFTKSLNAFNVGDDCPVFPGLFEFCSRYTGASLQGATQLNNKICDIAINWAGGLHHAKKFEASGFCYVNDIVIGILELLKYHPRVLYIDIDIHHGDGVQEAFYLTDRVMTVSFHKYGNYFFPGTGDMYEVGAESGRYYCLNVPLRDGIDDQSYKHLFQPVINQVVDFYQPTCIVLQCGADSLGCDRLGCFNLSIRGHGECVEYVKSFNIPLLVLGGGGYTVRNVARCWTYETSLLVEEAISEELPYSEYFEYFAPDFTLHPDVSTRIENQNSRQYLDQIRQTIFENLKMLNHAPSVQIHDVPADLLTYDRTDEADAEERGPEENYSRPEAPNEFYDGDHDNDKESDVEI
Histone deacetylase 1, sequence (Q13547 whole entry, the tested form may be a part): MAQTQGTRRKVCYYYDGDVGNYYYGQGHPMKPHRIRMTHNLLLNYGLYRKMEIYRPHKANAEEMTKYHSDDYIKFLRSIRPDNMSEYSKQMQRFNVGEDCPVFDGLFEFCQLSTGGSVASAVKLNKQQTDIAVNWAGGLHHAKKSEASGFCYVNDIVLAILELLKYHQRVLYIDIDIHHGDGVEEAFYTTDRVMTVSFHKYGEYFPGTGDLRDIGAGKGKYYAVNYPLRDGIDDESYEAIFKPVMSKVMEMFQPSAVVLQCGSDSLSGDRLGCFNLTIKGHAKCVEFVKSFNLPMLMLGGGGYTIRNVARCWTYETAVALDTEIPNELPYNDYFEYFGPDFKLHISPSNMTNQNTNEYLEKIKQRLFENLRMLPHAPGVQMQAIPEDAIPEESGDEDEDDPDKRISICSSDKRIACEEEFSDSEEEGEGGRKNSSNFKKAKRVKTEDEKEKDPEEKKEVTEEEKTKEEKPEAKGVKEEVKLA

For the molecule `NC(=O)c1cccc2[nH]c(-c3ccc(NCc4ccc(C(=O)Nc5ccccc5N)cc4)cc3)nc12`, the Activity at Histone deacetylase 3 was 20.7%; in experiment [1], 72.2%; on Histone deacetylase 1, 16.9%; in experiment [2], 96%; in experiment [3], 84%; in [4], 93.4%. The values for the Activity in [5] and in experiment [6] were 107% and 81%, respectively. Besides, in the experiment with HL-60 [7], the outcome was Active. In the experiment on HL-60 [8], the outcome was inactive.
